The test system of test [1] is N. gonorrhoeae FA1090E-1 (GyrA^A92T/ParC^WT). The test is described as follows: MIC by agar dilution, GyrA^A92T strain. The class given is cell-based. The following applies: Neisseria gonorrhoeae. The protocol: The purified isolate was confirmed to harbor GyrA^A92T as the single target mutation by DNA sequencing. This strain was designated FA1090E-1 (GyrA^A92T).
(§1) Minimum inhibitory concentration (MIC) of test compounds was determined by an agar dilution method, the reference testing method for N. gonorrhoeae according to the standards of the Clinical and Laboratory Standards Institute and the CDC.

In test [2] the test system is N. gonorrhoeae FA1090E-4 (GyrA^D90N/ParC^WT). Briefly: MIC by agar dilution, GyrA^D90N strain. The test is classed as cell-based. The following applies: Neisseria gonorrhoeae. The protocol:
This strain was designated FA1090E-4 (GyrA^D90N).
as §1
On the technique in general: In agar dilution, organisms are placed on agar that contains the substance at set levels.

Test [3] deals with N. gonorrhoeae FA1090-Q1 (GyrA^S91F/D95G, ParC WT). Briefly: MIC by agar dilution, fluoroquinolone-resistant GyrA^S91F/D95G strain. The class given is cell-based. The following applies: Neisseria gonorrhoeae. The protocol: as §1
Test [4] concerns N. gonorrhoeae topoisomerase IV ParC^S87N. The test is described as follows: Topoisomerase IV-catalyzed DNA decatenation assay, ParC^S87N. The test is classed as biochemical, Neisseria gonorrhoeae. The following applies: ParC S87N vs WT. As for the experimental part: (§2) All proteins were His-tagged. N. gonorrhoeae WT gyrase (GyrA, GyrB) and topoisomerase IV (ParC, ParE) subunits as well as mutant GyrA^D90N, GyrA^A92T, GyrA^S91F, and GyrA^S91F/D95G gyrase and ParC^D86N and ParC^S88P topoisomerase IV were prepared as described previously. , N. gonorrhoeae mutant GyrA^D95G gyrase and mutant ParC^S87N and ParC^E91G topoisomerase IV were generated using a QuickChange II XL site-directed mutagenesis kit (Agilent Technologies) with custom primers for the desired mutations. Mutant N. gonorrhoeae GyrA and ParC subunits were expressed and purified as described by Ashley et al. with the following modifications to optimize protein expression and lysis: (1) GyrA^D95G was expressed for 2.5 h and ParC^S87N and ParC^E91G were expressed for 3 h before harvesting, and (2) cells were lysed by sonication using a digital sonifier (Branson). The identities of all constructs were confirmed by DNA sequencing, and all enzymes were stored at −80 °C. In all assays, N. gonorrhoeae gyrase or topoisomerase IV was used as a 1:1 GyrA:GyrB or ParC:ParE mixture, respectively, and the stated enzyme concentration reflects that of the holoenzyme (A2B2). […]

The target of test [5] is T1, N. gonorrhoeae gyrase GyrA^D90N (Neisseria gonorrhoeae, UniProt P48371, D90N).
T1 construct: His; made in house
Briefly: DNA cleavage assay, GyrA^D90N gyrase. The test is classed as biochemical. As for the experimental part: (§3) Some experiments replaced MgCl2 with an equivalent concentration of CaCl2 (10 mM), or 1.5 mM ATP was added to assay mixtures.
(§4) Reactions were incubated at 37 °C for 30 min with WT and mutant (GyrA^D90N, GyrA^A92T, GyrA^S91F, GyrA^D95G, or GyrA^S91F/D95G) N. gonorrhoeae gyrase, 10 min with WT N. gonorrhoeae topoisomerase IV, and 20 min with mutant (ParC^D86N, ParC^S88P, ParC^S87N, or ParC^E91G) N. gonorrhoeae topoisomerase IV. Enzyme-DNA cleavage complexes were trapped by adding 2 μL of 5% SDS followed by 2 μL of 250 mM EDTA (pH 8.0). Proteinase K was added (2 μL of a 0.8 mg/mL solution), and reaction mixtures were incubated at 45 °C for 30 min to digest the enzyme. Samples were mixed with 2 μL of loading buffer and heated at 45 °C for 2 min prior to electrophoresis in 1% agarose gels in 40 mM Tris-acetate (pH 8.3), and 2 mM EDTA containing 0.5 μg/mL ethidium bromide. DNA bands were visualized by midrange ultraviolet light and quantified using an Alpha Innotech digital imaging system (Protein Simple). Single-stranded DNA cleavage was monitored by the conversion of negatively supercoiled to nicked plasmid molecules.

In test [6] the target is T2, N. gonorrhoeae gyrase GyrA^A92T (Neisseria gonorrhoeae, UniProt P48371, A92T).
T2 construct: His; made in house
The test is described as follows: DNA cleavage assay, GyrA^A92T gyrase. The class given is biochemical. The protocol: as §3, §4

Test [7] concerns the target T3, WT N. gonorrhoeae topoisomerase IV (Neisseria gonorrhoeae, UniProt P48374).
T3 sequence (P48374 1-768): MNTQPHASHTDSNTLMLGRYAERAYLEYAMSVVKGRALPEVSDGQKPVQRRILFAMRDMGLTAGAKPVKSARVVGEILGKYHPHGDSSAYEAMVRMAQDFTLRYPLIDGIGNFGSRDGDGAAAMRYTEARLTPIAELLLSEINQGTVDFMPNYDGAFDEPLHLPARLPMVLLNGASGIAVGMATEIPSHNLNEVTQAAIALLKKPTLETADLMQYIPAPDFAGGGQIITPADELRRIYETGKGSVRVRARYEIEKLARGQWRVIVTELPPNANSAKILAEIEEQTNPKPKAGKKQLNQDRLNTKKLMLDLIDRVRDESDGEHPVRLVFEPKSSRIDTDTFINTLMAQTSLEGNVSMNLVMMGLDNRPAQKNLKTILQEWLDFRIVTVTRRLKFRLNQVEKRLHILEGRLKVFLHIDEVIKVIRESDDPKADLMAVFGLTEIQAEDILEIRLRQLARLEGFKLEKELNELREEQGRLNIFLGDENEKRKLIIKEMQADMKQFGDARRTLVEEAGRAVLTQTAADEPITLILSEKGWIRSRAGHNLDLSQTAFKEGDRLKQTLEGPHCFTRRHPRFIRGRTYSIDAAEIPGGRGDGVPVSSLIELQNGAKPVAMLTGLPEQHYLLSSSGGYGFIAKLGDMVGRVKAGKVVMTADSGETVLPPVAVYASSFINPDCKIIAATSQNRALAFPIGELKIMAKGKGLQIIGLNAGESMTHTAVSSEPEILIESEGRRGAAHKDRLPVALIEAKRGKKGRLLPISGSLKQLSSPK
Briefly: Topoisomerase IV-catalyzed DNA decatenation assay, WT. The test is classed as biochemical. Set-up: His; made in house. As for the experimental part:
as §2

≈ marks a conversion by molar mass, not a printed value.

T2 sequence (P48371 whole entry A92T): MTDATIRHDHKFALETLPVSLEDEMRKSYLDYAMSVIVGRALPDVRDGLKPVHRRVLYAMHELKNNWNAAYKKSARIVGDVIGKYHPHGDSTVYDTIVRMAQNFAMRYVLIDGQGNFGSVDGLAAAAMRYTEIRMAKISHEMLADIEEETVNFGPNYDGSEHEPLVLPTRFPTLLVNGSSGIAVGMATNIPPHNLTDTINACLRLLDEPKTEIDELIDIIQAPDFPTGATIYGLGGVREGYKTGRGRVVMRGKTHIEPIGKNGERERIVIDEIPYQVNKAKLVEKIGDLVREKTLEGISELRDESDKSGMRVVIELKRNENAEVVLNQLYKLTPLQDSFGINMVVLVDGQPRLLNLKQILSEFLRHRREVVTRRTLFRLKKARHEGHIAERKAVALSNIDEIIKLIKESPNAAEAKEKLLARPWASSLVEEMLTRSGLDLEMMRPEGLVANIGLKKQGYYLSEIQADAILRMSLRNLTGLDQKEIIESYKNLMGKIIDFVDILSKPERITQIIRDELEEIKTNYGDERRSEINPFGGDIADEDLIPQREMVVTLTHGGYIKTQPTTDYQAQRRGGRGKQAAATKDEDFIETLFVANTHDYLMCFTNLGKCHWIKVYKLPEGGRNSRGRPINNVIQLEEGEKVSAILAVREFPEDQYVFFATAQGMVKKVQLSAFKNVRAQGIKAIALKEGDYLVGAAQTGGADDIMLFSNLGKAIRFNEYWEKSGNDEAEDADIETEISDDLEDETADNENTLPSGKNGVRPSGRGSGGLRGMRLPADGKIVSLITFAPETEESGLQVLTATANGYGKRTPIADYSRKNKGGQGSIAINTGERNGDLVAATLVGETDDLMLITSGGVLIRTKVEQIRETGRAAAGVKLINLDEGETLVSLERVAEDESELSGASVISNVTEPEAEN
T2 sequence (P22118 whole entry partner): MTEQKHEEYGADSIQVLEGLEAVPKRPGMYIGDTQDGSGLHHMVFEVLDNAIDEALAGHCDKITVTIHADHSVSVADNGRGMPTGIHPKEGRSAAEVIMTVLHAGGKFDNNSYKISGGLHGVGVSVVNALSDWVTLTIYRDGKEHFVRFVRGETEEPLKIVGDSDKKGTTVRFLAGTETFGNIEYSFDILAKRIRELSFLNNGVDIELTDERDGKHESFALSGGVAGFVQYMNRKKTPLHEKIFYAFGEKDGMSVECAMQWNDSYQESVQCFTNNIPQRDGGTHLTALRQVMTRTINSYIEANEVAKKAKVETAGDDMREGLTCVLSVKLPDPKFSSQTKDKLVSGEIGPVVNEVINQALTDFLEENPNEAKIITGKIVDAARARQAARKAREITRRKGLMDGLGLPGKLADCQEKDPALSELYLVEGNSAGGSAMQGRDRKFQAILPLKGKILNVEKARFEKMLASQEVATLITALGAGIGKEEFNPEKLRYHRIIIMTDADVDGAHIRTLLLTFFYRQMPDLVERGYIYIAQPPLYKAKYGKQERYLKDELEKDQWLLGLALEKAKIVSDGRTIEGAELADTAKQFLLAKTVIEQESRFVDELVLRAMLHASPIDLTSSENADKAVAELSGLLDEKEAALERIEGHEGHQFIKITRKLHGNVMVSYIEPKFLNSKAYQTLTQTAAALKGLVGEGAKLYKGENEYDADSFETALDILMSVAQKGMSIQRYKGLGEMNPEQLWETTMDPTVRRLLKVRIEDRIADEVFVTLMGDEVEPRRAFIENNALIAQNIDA
T1 sequence (P48371 whole entry D90N): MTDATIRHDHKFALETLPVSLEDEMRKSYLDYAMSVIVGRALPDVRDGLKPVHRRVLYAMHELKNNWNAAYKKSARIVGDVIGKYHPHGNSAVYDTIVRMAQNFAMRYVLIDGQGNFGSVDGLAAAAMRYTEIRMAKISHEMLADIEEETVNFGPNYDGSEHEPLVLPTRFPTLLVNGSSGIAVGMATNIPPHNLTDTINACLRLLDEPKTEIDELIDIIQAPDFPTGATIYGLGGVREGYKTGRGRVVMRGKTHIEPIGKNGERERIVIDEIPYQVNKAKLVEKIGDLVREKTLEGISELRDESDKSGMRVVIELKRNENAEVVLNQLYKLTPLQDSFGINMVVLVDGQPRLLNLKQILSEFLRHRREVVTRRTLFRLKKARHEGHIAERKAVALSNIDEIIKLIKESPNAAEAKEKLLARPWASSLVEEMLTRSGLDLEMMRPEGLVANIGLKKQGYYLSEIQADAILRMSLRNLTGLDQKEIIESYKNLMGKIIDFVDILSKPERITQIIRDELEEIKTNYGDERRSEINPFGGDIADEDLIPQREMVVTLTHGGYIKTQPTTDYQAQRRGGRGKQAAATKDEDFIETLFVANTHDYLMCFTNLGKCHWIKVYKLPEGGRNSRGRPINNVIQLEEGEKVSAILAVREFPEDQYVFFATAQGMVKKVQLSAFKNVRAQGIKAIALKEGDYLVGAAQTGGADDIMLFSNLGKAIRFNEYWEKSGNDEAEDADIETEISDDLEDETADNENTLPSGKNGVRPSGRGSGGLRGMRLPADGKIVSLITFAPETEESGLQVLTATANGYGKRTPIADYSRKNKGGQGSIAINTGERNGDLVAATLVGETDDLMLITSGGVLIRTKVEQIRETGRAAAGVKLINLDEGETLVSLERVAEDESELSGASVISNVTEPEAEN
T1 sequence (P22118 whole entry partner): as the sequence (P22118 whole entry partner) above

In general, MIC refers to the lowest concentration that inhibits growth of the organism. Usually IC50 stands for the concentration that gives 50% inhibition. Lower therefore signals inhibition by little substance. With `O=c1ccc2ncc(=O)n3c2n1C[C@H]3CN1CCC(NCc2cc3c(cn2)OCCC3)CC1` [gepotidacin], the MIC was determined as 2 µg/mL (≈ 4.46 µM) in test [1], 1 µg/mL (≈ 2.23 µM) in test [2] and 0.125 µg/mL (≈ 0.279 µM) in test [3]. In addition, in test [4], the “fold lower decatenation IC50 vs WT topoisomerase IV” value was around 2.3 fold. Also, the “Adj-Max Cleavage, single-stranded DNA breaks” value in test [5] is reported as 1.7%; in test [6], 4.9%. In addition, the “increase in gepotidacin-induced DNA cleavage” value in test [5] (GyrA D90N gyrase) is reported as “essentially no increase”. Also, the EC50 in test [6] (GyrA A92T gyrase, read-out: CC50, single-stranded DNA cleavage) stood at 500 nM. Moreover, in test [6] (GyrA A92T vs WT), the “fold decrease of adjusted maximal DNA cleavage vs WT” value was around 3.5 fold. In test [7], this compound yielded an IC50 of 1800 ± 1300 nM.

Values taken from PMC12624743 (ACS Infectious Diseases, 2025).
